From ChEMBL document CHEMBL1127114, “Conformationally constrained analogues of diacylglycerol. 5. 2,5-Dideoxy-3-O-tetradecanoyl-D-galactono-1,4-lactone: A superior homologue of 3-O-tetradecanoyl-2-deoxy-L-ribonolactone with PK-C binding affinity” (Bioorg Med Chem Lett, 1993)
pKi: −log10 of the molar value.

Legend:
[1] = biological target: T1, Protein kinase C alpha type (Homo sapiens, UniProt P17252); test: Inhibition of [20-3H]phorbol-12,13-dibutyrate(PDBU) binding to purified PK-C alpha
[2] = biological target: T1, Protein kinase C alpha type; test: Inhibition of [3H]phorbol-12,13-dibutyrate binding to PK-C

Row | pKi [1] | pKi [2] | Structure (SMILES)
1 | 5.82 | 5.60 | CCCCCCCCCCCCCC(=O)O[C@@H]1CC(=O)O[C@H]1CO
2 | 6.06 |  | CCCCCCCCCCCCCC(=O)O[C@@H]1CC(=O)O[C@H]1CCO
